Laboratory results published in ChEMBL document CHEMBL1151122, “Diterpenoids from the roots of Salvia hypargeia” (1988).
≈ marks a conversion by molar mass, not a printed value. Calls of active or inactive are those of the source. The calls are words filed in the database; no cut-off is given here.

Assays:
[1] = test system: Staphylococcus aureus; experiment: Antibacterial activity against Staphylococcus aureus ATCC 6538; assay type: functional, organism-based
[2] = test system: Staphylococcus epidermidis; experiment: Antibacterial activity against Staphylococcus epidermidis ATCC 12228; assay type: functional, organism-based
[3] = test system: Pseudomonas aeruginosa; experiment: Antibacterial activity against Pseudomonas aeruginosa ATCC 1539; assay type: functional, organism-based
[4] = test system: Bacillus subtilis; experiment: Antibacterial activity against Bacillus subtilis ATCC 6633; assay type: functional, organism-based
[5] = test system: Klebsiella pneumoniae; experiment: Antibacterial activity against Klebsiella pneumoniae UC 57; assay type: functional, organism-based
[6] = test system: Staphylococcus aureus; experiment: Antibacterial activity against Staphylococcus aureus ATCC 6538 by disk diffusion method; assay type: functional
[7] = test system: Staphylococcus epidermidis; experiment: Antibacterial activity against Staphylococcus epidermidis ATCC 12228 by disk diffusion method; assay type: functional
[8] = test system: Pseudomonas aeruginosa; experiment: Antibacterial activity against Pseudomonas aeruginosa ATCC 1539 by disk diffusion method; assay type: functional
[9] = test system: Bacillus subtilis; experiment: Antibacterial activity against Bacillus subtilis ATCC 6633 by disk diffusion method; assay type: functional
[10] = test system: Klebsiella pneumoniae; experiment: Antibacterial activity against Klebsiella pneumoniae UC 57 by disk diffusion method; assay type: functional
[11] = test system: Staphylococcus aureus; experiment: Antibacterial activity against Staphylococcus aureus ATCC 6538 by tube dilution method; assay type: functional
[12] = test system: Klebsiella pneumoniae; experiment: Antibacterial activity against Klebsiella pneumoniae UC 57 by tube dilution method; assay type: functional
[13] = test system: Bacillus subtilis; experiment: Antibacterial activity against Bacillus subtilis ATCC 6633 by tube dilution method; assay type: functional
[14] = test system: Staphylococcus epidermidis; experiment: Antibacterial activity against Staphylococcus epidermidis ATCC 12228 by tube dilution method; assay type: functional
[15] = test system: Pseudomonas aeruginosa; experiment: Antibacterial activity against Pseudomonas aeruginosa ATCC 1539 by tube dilution method; assay type: functional
[16] = test system: Mycobacterium tuberculosis; experiment: Antitubercular activity against Mycobacterium tuberculosis H37Rv at 250 ug/ml; assay type: functional, organism-based

Row | Structure (SMILES) | Activity [1] | Activity [2] | Activity [3] | Activity [4] | Activity [5] | inhibition zone (IZ) [6] | inhibition zone (IZ) [7] | inhibition zone (IZ) [8] | inhibition zone (IZ) [9] | inhibition zone (IZ) [10] | MIC [11] | MIC [12] | MIC [13] | MIC [14] | MIC [15] | Activity [16]
1 | CC(C)c1ccc2c(c1O)C[C@@H](O)[C@H]1C(C)(C)CCC(=O)[C@]21C | inactive | inactive | inactive | inactive | inactive |  |  |  |  |  |  |  |  |  |  | 
2 | CC(C)c1cc2c(cc1O)[C@@]1(C)C(=O)CCC(C)(C)[C@@H]1[C@H](O)C2=O [HYPARGENIN A] |  |  |  |  |  | >7 mm | >7 mm | >7 mm | >7 mm | >7 mm | 15.6 µg/mL (≈ 47.2 µM) | 15.6 µg/mL (≈ 47.2 µM) |  |  |  | 
3 | CC(C)(O)c1cc2c(cc1O)[C@@]1(C)CCCC(C)(C)[C@@H]1CC2=O [HYPARGENIN B] |  |  |  |  |  | >7 mm | >7 mm | >7 mm | >7 mm | >7 mm | 125 µg/mL (≈ 395 µM) | 125 µg/mL (≈ 395 µM) |  |  |  | 
4 | CC(C)c1cc2c(cc1O)[C@@]1(C)CCCC(C)(C)[C@@H]1C(=O)C2=O [HYPARGENIN C] |  |  |  |  |  | >7 mm | >7 mm | >7 mm | >7 mm | >7 mm | 125 µg/mL (≈ 398 µM) |  | 15.6 µg/mL (≈ 49.6 µM) |  |  | 
5 | CC(C)c1cc2c(cc1O)[C@@]1(C)CCC(=O)C(C)(C)[C@@H]1C=C2 [HYPARGENIN D] |  |  |  |  |  | >7 mm | >7 mm | >7 mm | >7 mm | >7 mm |  |  | 62.5 µg/mL (≈ 209 µM) |  |  | 
6 | CC(C)C1=C(O)C(=O)C2=C(C=CC3(O)C(C)(C)CCC[C@]23C)C1=O (stereo partly specified) [HYPARGENIN F] |  |  |  |  |  | >7 mm | >7 mm | >7 mm | >7 mm | >7 mm | 125 µg/mL (≈ 378 µM) |  |  | 62.5 µg/mL (≈ 189 µM) | 125 µg/mL (≈ 378 µM) | Active
